# Values of other authors, collected in patent US6423302B1, “Use of octocrylene for solubilizing 2,4-bis{[4-(2-ethyl-hexyloxy)-2-hydroxy]-phenyl}-6-(4-methoxyphenyl)-1,3,5-triazine in cosmetic or dermatological light protection compositions” (Beiersdorf AG, priority 1999, dated 2002).
# Conditions: prior-art statement
compound,measurement,setting,value
"CCCCC(CC)COc1ccc(-c2nc(-c3ccc(OC)cc3)nc(-c3ccc(OCC(CC)CCCC)cc3O)n2)c(O)c1 (centres unmarked) [2,4-bis-{[4-(2-ethylhexyloxy)-2-hydroxy]phenyl}-6-(4-methoxyphenyl)-1,3,5-triazine]",maximum amount of this filter that known solvents can dissolve,known solvents for this UV filter (lipids),≤ 10 % by weight
same,solubility in lipids,stated as main disadvantage,poor solubility in lipids
